Measured values published in paper PMC7594077, “An Alcohol Dehydrogenase 3 (ADH3) from Entamoeba histolytica Is Involved in the Detoxification of Toxic Aldehydes” (Microorganisms, 2020).

What was measured:
recEhADH3B^b = target: T1, recEhADH3B^b (Entamoeba histolytica, UniProt C4M6R1); assay: NADPH oxidation at […] nm, Michaelis-Menten; type: biochemical; settings: 0.7 mM NADPH, pH 7.4, EDTA-treated and dialysed enzyme incubated with 1 mM Ni2+; reduction direction
T1 construct: gene EHI_088020; E. coli BL21(DE3); dimer; EDTA-stripped and reloaded with Ni2+
T1 sequence (C4M6R1 1-382): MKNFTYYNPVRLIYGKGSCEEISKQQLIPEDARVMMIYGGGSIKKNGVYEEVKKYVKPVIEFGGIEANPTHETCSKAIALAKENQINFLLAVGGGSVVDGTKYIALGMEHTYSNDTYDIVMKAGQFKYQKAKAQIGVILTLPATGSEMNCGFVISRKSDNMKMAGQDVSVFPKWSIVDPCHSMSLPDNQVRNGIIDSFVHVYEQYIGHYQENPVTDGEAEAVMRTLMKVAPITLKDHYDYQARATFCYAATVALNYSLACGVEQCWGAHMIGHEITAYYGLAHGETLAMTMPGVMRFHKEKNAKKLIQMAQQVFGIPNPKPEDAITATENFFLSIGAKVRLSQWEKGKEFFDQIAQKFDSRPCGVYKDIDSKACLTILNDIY

[1] = target: recombinant EhADH3B^b (alcohol dehydrogenase 3B of Entamoeba histolytica) (Entamoeba histolytica); assay: SEC; HiLoad 16/60 Superdex prep grade column; 50 mM Tris, 150 mM NaCl, 10 mM EDTA, 1 mM DTT, 10% glycerol, pH 8.0; elution peak at 82 mL compared with standard proteins

| stoichiometry N [1] | Compound | Km (recEhADH3B^b) |
| --- | --- | --- |
| – | CC=O [acetaldehyde] | 30.84 [95% CI 16.21–60.54] mM |
| – | C=O [formaldehyde] | 63.7 [95% CI 25.3 to 267.4] mM |
| 2 | recombinant EhADH3B^b (alcohol dehydrogenase 3B of Entamoeba histolytica) (enzyme) | – |
